Source: ChEMBL document CHEMBL4616581, “Current scenario of artemisinin and its analogues for antimalarial activity” (Eur J Med Chem, 2019)

How the values were obtained:
Type in all cases: functional, organism-based
Plasmodium falciparum [1] = assay: Antimalarial activity against Plasmodium falciparum K1 after 48 hrs by [3H]hypoxanthine incorporation assay
Plasmodium falciparum [2] = assay: Antimalarial activity against Plasmodium falciparum HB3 after 48 hrs by [3H]hypoxanthine incorporation assay
Plasmodium falciparum [3] = assay: Antimalarial activity against chloroquine-sensitive Plasmodium falciparum 3D7 after 72 hrs by SYBR green dye-based spectrofluorometer analysis; settings: 3D7, 72 h
Plasmodium falciparum [4] = assay: Antimalarial activity against chloroquine-resistant Plasmodium falciparum K1 after 72 hrs by SYBR green dye-based spectrofluorometer analysis; settings: K1, 72 h
Plasmodium falciparum [5] = assay: Antimalarial activity against chloroquine-sensitive Plasmodium falciparum NF54
Plasmodium falciparum [6] = assay: Antimalarial activity against Plasmodium falciparum NF54 after 48 hrs by spectrophotometric analysis; settings: NF54, 48 h
Plasmodium falciparum [7] = assay: Antimalarial activity against Plasmodium falciparum K1
Plasmodium falciparum [8] = assay: Antimalarial activity against Plasmodium falciparum HB3
Plasmodium falciparum [9] = assay: Antimalarial activity against Plasmodium falciparum W2 after 48 hrs by in presence of [3H]hypoxanthine
Plasmodium falciparum [10] = assay: Antimalarial activity against Plasmodium falciparum D6 after 48 hrs by in presence of [3H]hypoxanthine
Plasmodium falciparum [11] = assay: Antimalarial activity against chloroquine-resistant Plasmodium falciparum K1 after 48 hrs by [3H]-hypoxanthine incorporation assay
Plasmodium falciparum [12] = assay: Antimalarial activity against Plasmodium falciparum HB3 after 48 hrs by [3H]-hypoxanthine incorporation assay
Plasmodium falciparum [13] = assay: Antimalarial activity against Plasmodium falciparum K1 by [3H]-hypoxanthine incorporation assay
Plasmodium falciparum [14] = assay: Antimalarial activity against blood stages of chloroquine-resistant Plasmodium falciparum K1
Plasmodium falciparum [15] = assay: Antimalarial activity against Plasmodium falciparum W2 after 24 hrs by in presence of [3H]hypoxanthine
Plasmodium falciparum [16] = assay: Antimalarial activity against Plasmodium falciparum D6 after 24 hrs by in presence of [3H]hypoxanthine
Plasmodium falciparum [17] = assay: Antimalarial activity against Plasmodium falciparum NF54

C[C@H]1[C@@H](Oc2ccc(C(F)(F)F)cc2)O[C@@H]2O[C@]3(C)CC[C@H]4[C@H](C)CC[C@@H]1[C@@]24OO3
IC50 (Plasmodium falciparum [1]): 5.92 nM

C[C@H]1[C@@H](Oc2cccc3ccccc23)O[C@@H]2O[C@]3(C)CC[C@H]4[C@H](C)CC[C@@H]1[C@@]24OO3
IC50 (Plasmodium falciparum [1]): 8.89 nM | IC50 (Plasmodium falciparum [2]): 7.06 nM

CCC(=O)OC1O[C@@H]2O[C@]3(C)CC[C@H]4[C@H](C)CC[C@@H]([C@H]1C)[C@@]24OO3 (some centres undefined)
EC50 (Plasmodium falciparum [3]): 3.1 nM | EC50 (Plasmodium falciparum [4]): 0.3 nM

C[C@@H]1CC[C@H]2[C@@H](C)C(CC(=O)c3ccc(C(=O)CC4O[C@@H]5O[C@]6(C)CC[C@H]7[C@H](C)CC[C@@H]([C@H]4C)[C@@]57OO6)cc3)O[C@@H]3O[C@]4(C)CC[C@@H]1[C@]32OO4 (some centres undefined)
IC50 (Plasmodium falciparum [5]): 1.9 nM

C[C@@H]1CC[C@@H]2[C@]34OO[C@@](C)(CC[C@@H]13)O[C@H]4OC(O/C=C/c1ccccc1)[C@]2(C)O (some centres undefined)
IC50 (Plasmodium falciparum [6]): 106 nM

C[C@H]1[C@@H](OCc2ccc(CN3CCCCC3)cc2)O[C@@H]2O[C@]3(C)CC[C@H]4[C@H](C)CC[C@@H]1[C@@]24OO3
IC50 (Plasmodium falciparum [7]): 9.8 nM | IC50 (Plasmodium falciparum [8]): 12.2 nM

C[C@@H]1CC[C@@H]2[C@]34OO[C@@](C)(CC[C@@H]13)O[C@H]4OC(OCC1CC1)[C@]2(C)O (some centres undefined)
IC50 (Plasmodium falciparum [6]): 158 nM

CCOC(=O)CC[C@@H](O[C@H]1O[C@@H]2O[C@]3(C)CC[C@H]4[C@H](C)CC[C@@H]([C@H]1C)[C@@]24OO3)c1ccccc1
IC50 (Plasmodium falciparum [9]): 0.213 ng/mL | IC50 (Plasmodium falciparum [10]): 0.496 ng/mL

CCOC(=O)CC[C@@H](O[C@H]1O[C@@H]2O[C@]3(C)CC[C@H]4[C@H](C)CC[C@@H]([C@H]1C)[C@@]24OO3)c1ccc([N+](=O)[O-])cc1
IC50 (Plasmodium falciparum [9]): 0.23 ng/mL | IC50 (Plasmodium falciparum [10]): 0.563 ng/mL

C[C@H]1[C@@H](OCc2ccc(CO)cc2)O[C@@H]2O[C@]3(C)CC[C@H]4[C@H](C)CC[C@@H]1[C@@]24OO3
IC50 (Plasmodium falciparum [7]): 4.4 nM | IC50 (Plasmodium falciparum [8]): 4.2 nM

CCNCCO[C@H]1O[C@@H]2O[C@]3(C)CC[C@H]4[C@H](C)CC[C@@H]([C@H]1C)[C@@]24OO3
IC50 (Plasmodium falciparum [7]): 4.1 nM | IC50 (Plasmodium falciparum [8]): 4.1 nM

CC(C)CNCCOC1O[C@@H]2O[C@]3(C)CC[C@H]4[C@H](C)CC[C@@H]([C@H]1C)[C@@]24OO3 (some centres undefined)
EC50 (Plasmodium falciparum [3]): 6.8 nM | EC50 (Plasmodium falciparum [4]): 2.4 nM

COP(=O)(OCC[C@H]1O[C@@H]2O[C@]3(C)CC[C@H]4[C@H](C)CC[C@@H]([C@H]1C)[C@@]24OO3)OCC[C@H]1O[C@@H]2O[C@]3(C)CC[C@H]4[C@H](C)CC[C@@H]([C@H]1C)[C@@]24OO3
IC50 (Plasmodium falciparum [11]): 0.2 nM | IC50 (Plasmodium falciparum [12]): 0.09 nM

CC1CCC2C(CCCCCCC[C@]3(C[C@@H]4C(=O)O[C@@H]5O[C@]6(C)CC[C@H]7[C@H](C)CC[C@@H]4[C@@]57OO6)C(=O)O[C@@H]4O[C@]5(C)CC[C@H]6[C@H](C)CC[C@@H]3[C@@]46OO5)C(O)OC3OC4(C)CCC1C32OO4 (some centres undefined)
EC50 (Plasmodium falciparum [13]): 3.1 nM

C[C@@H]1CC[C@H]2[C@@H](C)C(CC(=O)c3cccc(C(=O)CC4O[C@@H]5O[C@]6(C)CC[C@H]7[C@H](C)CC[C@@H]([C@H]4C)[C@@]57OO6)c3)O[C@@H]3O[C@]4(C)CC[C@@H]1[C@]32OO4 (some centres undefined)
IC50 (Plasmodium falciparum [5]): 1.9 nM

CO[C@H]1O[C@@H]2C[C@]3(C)CC[C@H]4[C@H](C)CC[C@@H]([C@H]1C)[C@@]24OO3
IC50 (Plasmodium falciparum [14]): 0.301 ng/mL

COC(=O)C[C@H](C)O[C@H]1O[C@@H]2O[C@]3(C)CC[C@H]4[C@H](C)CC[C@@H]([C@H]1C)[C@@]24OO3
IC50 (Plasmodium falciparum [15]): 0.48 ng/mL | IC50 (Plasmodium falciparum [16]): 0.00119 µg/mL

C[C@@H]1CC[C@H]2[C@@H](C)C(OC(=O)Cc3ccccc3)O[C@@H]3O[C@]4(C)CC[C@@H]1[C@]32OO4 (some centres undefined)
EC50 (Plasmodium falciparum [3]): 2.4 nM | EC50 (Plasmodium falciparum [4]): 0.5 nM

CNCCO[C@H]1O[C@@H]2O[C@]3(C)CC[C@H]4[C@H](C)CC[C@@H]([C@H]1C)[C@@]24OO3
IC50 (Plasmodium falciparum [7]): 24 nM | IC50 (Plasmodium falciparum [8]): 27 nM

CCOC(=O)CC[C@H](O[C@H]1O[C@@H]2O[C@]3(C)CC[C@H]4[C@H](C)CC[C@@H]([C@H]1C)[C@@]24OO3)c1ccccc1
IC50 (Plasmodium falciparum [9]): 0.144 ng/mL | IC50 (Plasmodium falciparum [10]): 0.459 ng/mL

C[C@H]1[C@@H](OCc2ccc(CN)cc2)O[C@@H]2O[C@]3(C)CC[C@H]4[C@H](C)CC[C@@H]1[C@@]24OO3
IC50 (Plasmodium falciparum [7]): 1.4 nM | IC50 (Plasmodium falciparum [8]): 3.1 nM

C[C@H]1[C@@H](OCc2ccc(CN3CCOCC3)cc2)O[C@@H]2O[C@]3(C)CC[C@H]4[C@H](C)CC[C@@H]1[C@@]24OO3
IC50 (Plasmodium falciparum [7]): 35 nM | IC50 (Plasmodium falciparum [8]): 50 nM

C[C@H]1[C@@H](OC2O[C@H](CO)[C@H](O)[C@H](O)[C@H]2O)O[C@@H]2O[C@]3(C)CC[C@H]4[C@H](C)CC[C@@H]1[C@@]24OO3 (some centres undefined)
IC50 (Plasmodium falciparum [15]): 35.6 ng/mL | IC50 (Plasmodium falciparum [16]): 0.0131 µg/mL

CC1=C(/C=C/c2ccccc2)O[C@@H]2O[C@]3(C)CC[C@H]4[C@H](C)CC[C@@H]1[C@@]24OO3
IC50 (Plasmodium falciparum [17]): 16 nM

C[C@H]1[C@@H](OCCN2CCCC2)O[C@@H]2O[C@]3(C)CC[C@H]4[C@H](C)CC[C@@H]1[C@@]24OO3
IC50 (Plasmodium falciparum [7]): 23 nM | IC50 (Plasmodium falciparum [8]): 23 nM

COc1cc(OC)c(C2O[C@@H]3O[C@]4(C)CC[C@H]5[C@H](C)CC[C@@H]([C@H]2C)[C@@]35OO4)cc1C1O[C@@H]2O[C@]3(C)CC[C@H]4[C@H](C)CC[C@@H]([C@H]1C)[C@@]24OO3 (some centres undefined)
IC50 (Plasmodium falciparum [5]): 1.3 nM

C[C@@H]1CC[C@H]2[C@@H](C)C(OC(=O)c3cccc([N+](=O)[O-])c3)O[C@@H]3O[C@]4(C)CC[C@@H]1[C@]32OO4 (some centres undefined)
IC50 (Plasmodium falciparum [6]): 10.6 nM

C[C@H]1[C@@H](OCc2ccc(C(=O)O)cc2)O[C@@H]2C[C@]3(C)CC[C@H]4[C@H](C)CC[C@@H]1[C@@]24OO3
IC50 (Plasmodium falciparum [14]): 1.38 ng/mL

C[C@H]1[C@@H](OC2O[C@H](CO)[C@@H](O)[C@H](O)[C@H]2O)O[C@@H]2O[C@]3(C)CC[C@H]4[C@H](C)CC[C@@H]1[C@@]24OO3 (some centres undefined)
IC50 (Plasmodium falciparum [15]): 34.1 ng/mL | IC50 (Plasmodium falciparum [16]): 0.121 µg/mL

COc1ccc(OC)c(COC2O[C@@H]3O[C@]4(C)CC[C@H]5[C@H](C)CC[C@H]([C@@]35OO4)[C@@]2(C)O)c1 (some centres undefined)
IC50 (Plasmodium falciparum [6]): 125 nM

C=CC1=C(C)[C@@H]2CC[C@@H](C)[C@@H]3CC[C@]4(C)OO[C@@]23[C@H](O1)O4
IC50 (Plasmodium falciparum [17]): 28 nM

C[C@@H]1CC[C@H]2[C@@H](C)C(OC(=O)c3ccc([N+](=O)[O-])cc3)O[C@@H]3O[C@]4(C)CC[C@@H]1[C@]32OO4 (some centres undefined)
IC50 (Plasmodium falciparum [6]): 8.54 nM

CCO[C@H]1O[C@@H]2C[C@]3(C)CC[C@H]4[C@H](C)CC[C@@H]([C@H]1C)[C@@]24OO3
IC50 (Plasmodium falciparum [14]): 12.8 nM

C[C@@H]1CC[C@H]2[C@H](C[C@@]3(CCCCCCC4C(=O)O[C@@H]5O[C@]6(C)CC[C@H]7[C@H](C)CC[C@@H]4[C@@]57OO6)C(=O)O[C@@H]4O[C@]5(C)CC[C@H]6[C@H](C)CC[C@@H]3[C@@]46OO5)C(=O)O[C@@H]3O[C@]4(C)CC[C@@H]1[C@]32OO4 (some centres undefined)
EC50 (Plasmodium falciparum [13]): 2.4 nM

C[C@@H]1CC[C@H]2[C@H](C[C@@]3(CCCCCCC[C@]4(C[C@H]5C(=O)O[C@@H]6O[C@]7(C)CC[C@H]8[C@H](C)CC[C@@H]5[C@@]68OO7)C(=O)O[C@@H]5O[C@]6(C)CC[C@H]7[C@H](C)CC[C@@H]4[C@@]57OO6)C(=O)O[C@@H]4O[C@]5(C)CC[C@H]6[C@H](C)CC[C@@H]3[C@@]46OO5)C(=O)O[C@@H]3O[C@]4(C)CC[C@@H]1[C@]32OO4
EC50 (Plasmodium falciparum [13]): 20 nM

CC1=C(/C=C\c2ccccc2)O[C@@H]2O[C@]3(C)CC[C@H]4[C@H](C)CC[C@@H]1[C@@]24OO3
IC50 (Plasmodium falciparum [17]): 8.1 nM

C[C@@H]1CC[C@@H]2[C@]34OO[C@@](C)(CC[C@@H]13)O[C@H]4OC(OCc1ccc3c(c1)OCO3)[C@]2(C)O (some centres undefined)
IC50 (Plasmodium falciparum [6]): 110 nM

C[C@@H]1CC[C@H]2[C@H](C[C@@]3(CCCCCC[C@]4(C[C@H]5C(=O)O[C@@H]6O[C@]7(C)CC[C@H]8[C@H](C)CC[C@@H]5[C@@]68OO7)C(=O)O[C@@H]5O[C@]6(C)CC[C@H]7[C@H](C)CC[C@@H]4[C@@]57OO6)C(=O)O[C@@H]4O[C@]5(C)CC[C@H]6[C@H](C)CC[C@@H]3[C@@]46OO5)C(=O)O[C@@H]3O[C@]4(C)CC[C@@H]1[C@]32OO4
EC50 (Plasmodium falciparum [13]): 5.8 nM

C[C@@H]1CC[C@H]2[C@@H](C)C(OC(=O)c3cccc4c3OCO4)O[C@@H]3O[C@]4(C)CC[C@@H]1[C@]32OO4 (some centres undefined)
IC50 (Plasmodium falciparum [6]): 8.08 nM

C[C@H]1[C@@H](CCOP(=O)(OCC[C@H]2O[C@@H]3O[C@]4(C)CC[C@H]5[C@H](C)CC[C@@H]([C@H]2C)[C@@]35OO4)Oc2ccccc2)O[C@@H]2O[C@]3(C)CC[C@H]4[C@H](C)CC[C@@H]1[C@@]24OO3
IC50 (Plasmodium falciparum [11]): 0.5 nM | IC50 (Plasmodium falciparum [12]): 0.18 nM

COC(=O)C[C@@H](C)O[C@H]1O[C@@H]2O[C@]3(C)CC[C@H]4[C@H](C)CC[C@@H]([C@H]1C)[C@@]24OO3
IC50 (Plasmodium falciparum [15]): 0.071 ng/mL | IC50 (Plasmodium falciparum [16]): 0.00044 µg/mL

C[C@@H]1CC[C@H]2[C@@H](C)C(O)O[C@@H]3C[C@]4(C)CC[C@@H]1[C@]32OO4 (some centres undefined)
IC50 (Plasmodium falciparum [14]): 0.69 ng/mL

C[C@H]1[C@@H](O[C@@H]2O[C@H](CO)[C@@H](O[C@@H]3O[C@H](CO)[C@@H](O)[C@H](O)[C@H]3O)[C@H](O)[C@H]2O)O[C@@H]2O[C@]3(C)CC[C@H]4[C@H](C)CC[C@@H]1[C@@]24OO3
IC50 (Plasmodium falciparum [15]): 171 ng/mL | IC50 (Plasmodium falciparum [16]): 0.71 µg/mL
